# Tests used:
# [1] = system: luciferase expression in the liver (FLuc mRNA); test: Luciferase mRNA in vivo evaluation using lipid nanoparticle compositions (liver luciferase expression); parameters: species or system mice; conditions: LNP 50/10/38.5/1.5 (PEG-DMA) or 47.5/10/40.8/1.7, tail vein injection, liver 4 hours after administration; for Liver Luc @ 0.3 mg/kg (ng luc/g liver): 0.3 mg mRNA/kg; for Liver Luc @ 1.0 mg/kg (ng luc/g liver): 1.0 mg mRNA/kg; for Liver Luc @ 0.5 mg/kg (ng luc/g liver): 0.5 mg mRNA/kg
# Experimental: Lipid nanoparticles are prepared and tested according to the general procedures described in PCT Pub. Nos. WO 2015/199952 and WO 2017/004143, the full disclosures of which are incorporated herein by reference. Briefly, cationic lipid, DSPC, cholesterol and PEG-lipid are solubilized in ethanol at a molar ratio of about 50:10:38.5:1.5 or about 47.5:10:40.8:1.7. Lipid nanoparticles (LNP) are prepared at a total lipid to mRNA weight ratio of approximately 10:1 to 30:1. The mRNA is diluted to 0.2 mg/mL in 10 to 50 mM citrate or acetate buffer, pH 4. Syringe pumps are used to mix the ethanolic lipid solution with the mRNA aqueous solution at a ratio of about 1:5 to 1:3 (vol/vol) with total flow rates above 15 mL/min. The ethanol is then removed and the external buffer replaced with PBS by dialysis. Finally, the lipid nanoparticles are filtered through a 0.2 μm pore sterile filter. Lipid nanoparticle particle size is approximately 55-95 nm diameter, and in some instances approximately 70-90 nm diameter as determined by quasi-elastic light scattering using a Malvern Zetasizer Nano ZS (Malvern, UK).
# Studies are performed in 6-8 week old female C57BL/6 mice (Charles River) or 8-10 week old CD-1 (Harlan) mice (Charles River) according to guidelines established by an institutional animal care committee (ACC) and the Canadian Council on Animal Care (CCAC). Varying doses of mRNA-lipid nanoparticle are systemically administered by tail vein injection and animals euthanized at a specific time point (e.g., 4 hours) post-administration. Liver and spleen are collected in pre-weighed tubes, weights determined, immediately snap frozen in liquid nitrogen and stored at −80° C. until processing for analysis.
# For liver, approximately 50 mg is dissected for analyses in a 2 mL FastPrep tubes (MP Biomedicals, Solon Ohio). ¼″ ceramic sphere (MP Biomedicals) is added to each tube and 500 μL of Glo Lysis Buffer—GLB (Promega, Madison Wis.) equilibrated to room temperature is added to liver tissue. Liver tissues are homogenized with the FastPrep24 instrument (MP Biomedicals) at 2×6.0 m/s for 15 seconds. Homogenate is incubated at room temperature for 5 minutes prior to a 1:4 dilution in GLB and assessed using SteadyGlo Luciferase assay system (Promega). Specifically, 50 μL of diluted tissue homogenate is reacted with 50 μL of SteadyGlo substrate, shaken for 10 seconds followed by 5 minute incubation and then quantitated using a CentroXS^3 LB 960 luminometer (Berthold Technologies, Germany). The amount of protein assayed is determined by using the BCA protein assay kit (Pierce, Rockford Ill.). Relative luminescence units (RLU) are then normalized to total ug protein assayed. To convert RLU to ng luciferase a standard curve is generated with QuantiLum Recombinant Luciferase (Promega).
# The FLuc mRNA (L-6107 or L-7202) from Trilink Biotechnologies will express a luciferase protein, originally isolated from the firefly, photinus pyralis. FLuc is commonly used in mammalian cell culture to measure both gene expression and cell viability. It emits bioluminescence in the presence of the substrate, luciferin. This capped and polyadenylated mRNA is fully substituted with respect to uridine and/or cytidine nucleosides.
# The cationic lipids shown in Table 2 have previously been tested with nucleic acids. For comparative purposes, these lipids were also used to formulate lipid nanoparticles containing the FLuc mRNA (L-6107) using an in line mixing method, as described in Example 1 and in PCT/US10/22614, which is hereby incorporated by reference in its entirety. Lipid nanoparticles were formulated using the following molar ratio: 50% Cationic lipid/10% distearoylphosphatidylcholine (DSPC)/38.5% Cholesterol/1.5% PEG lipid (“PEG-DMG”, i.e., 1-(monomethoxy-polyethyleneglycol)-2,3-dimyristoylglycerol, with an average PEG molecular weight of 2000). In alternate embodiments, cationic lipid, DSPC, cholesterol and PEG-lipid are formulated at a molar ratio of approximately 47.5:10:40.8:1.7. […]
# [2] = Determination of pKa of formulated lipids (TNS fluorescence assay in lipid nanoparticles); type: physicochemical; conditions: cationic lipid formulated in lipid nanoparticles (cationic lipid/DSPC/cholesterol/PEG-lipid 50/10/38.5/1.5 mol %); pH of half-maximal TNS fluorescence
# Experimental: As described elsewhere, the pKa of formulated cationic lipids is correlated with the effectiveness of LNPs for delivery of nucleic acids (see Jayaraman et al, Angewandte Chemie, International Edition (2012), 51(34), 8529-8533; Semple et al, Nature Biotechnology 28, 172-176 (2010)). The preferred range of pKa is ˜5 to ˜7. […] Lipid nanoparticles comprising cationic lipid/DSPC/cholesterol/PEG-lipid (50/10/38.5/1.5 mol %) in PBS at a concentration of 0.4 mM total lipid are prepared using the in-line process as described in Example 1. TNS is prepared as a 100 μM stock solution in distilled water. Vesicles are diluted to 24 μM lipid in 2 mL of buffered solutions containing, 10 mM HEPES, 10 mM MES, 10 mM ammonium acetate, 130 mM NaCl, where the pH ranged from 2.5 to 11. An aliquot of the TNS solution is added to give a final concentration of 1 μM and following vortex mixing fluorescence intensity is measured at room temperature in a SLM Aminco Series 2 Luminescence Spectrophotometer using excitation and emission wavelengths of 321 nm and 445 nm. A sigmoidal best fit analysis is applied to the fluorescence data and the pKa was measured as the pH giving rise to half-maximal fluorescence intensity.
SMILES,Liver Luc @ 0.3 mg/kg (ng luc/g liver) [1] [ng luc/g liver],Liver Luc @ 1.0 mg/kg (ng luc/g liver) [1] [ng luc/g liver],pKa [2],Liver Luc @ 0.5 mg/kg (ng luc/g liver) [1] [ng luc/g liver]
CCCCCCCCC(CCCCCC)CN(CCCCN(C)C)CC(CCCCCC)CCCCCCCC (stereo not drawn) [Compound 4],87 ± 11,233 ± 121,5.55,
CCCCCCCCC(CCCCCC)CN(CCCNC)CC(CCCCCC)CCCCCCCC (stereo not drawn) [Compound 17],,,6.49,12 ± 5
CCCCCCCCC(CCCCCC)CN(CCCCCN(CCO)CCO)CC(CCCCCC)CCCCCCCC (stereo not drawn) [Compound 16],,,5.87,52 ± 26
CCCCCCCCC(CCCCCC)CN(CCCCCN(C)C)CC(CCCCCC)CCCCCCCC (stereo not drawn) [Compound 5],2840 ± 757,13739 ± 7631,5.77,
CCCCCCCCC(CCCCCC)CN(CCCCCCN(C)C)CC(CCCCCC)CCCCCCCC (stereo not drawn) [Compound 15],,,5.91,2417 ± 833

# — patent publication US11357856B2, “Lipids for delivery of active agents” (Acuitas Therapeutics, Inc., priority 2017, dated 2022)
